Reference: patent US4687769A, “3-(3,3,3-trifluoropropenyl) cephalosporins” (Meiji Seika Kaisha, Ltd., priority 1984, dated 1987)
In brackets after ≈: the same amount, converted by molar mass.

Tests used:
Test in all cases: Minimum inhibitory concentration (MIC)
Format in all cases: cell-based
[1] = system: Serratia marcescens No. 1; conditions: read-out: Minimum inhibitory concentrations (MIC)
Text: (§1) The cephem compounds (I) of this invention and the salts or ester thereof are all novel compounds which are useful as antibacterial agent. To illustrate the utility of the new compound of this invention, we have determined and show below the minimum inhibitory concentrations of some representative examples of the new cephem compounds of this invention against growth of various bacteria in Table 1.

[2] = system: Staphylococcus aureus 209P JC-1; conditions: read-out: Minimum inhibitory concentrations (MIC)
Text: as §1

[3] = system: Escherichia coli NIHJ JC-2; conditions: NIHJJC2, read-out: Minimum inhibitory concentrations (MIC)
Text: as §1

Proteus mirabilis GN-79 = conditions: GN79, read-out: Minimum inhibitory concentrations (MIC)
Text: as §1

[4] = system: Salmonella typhimurium LT-2; conditions: Salmonella enterica, read-out: Minimum inhibitory concentrations (MIC)
Text: as §1

Proteus vulgaris GN-76 = conditions: GN76, read-out: Minimum inhibitory concentrations (MIC)
Text: as §1

[5] = system: Pseudomonas cepacia M-0527; conditions: Burkholderia cepacia, M0527, read-out: Minimum inhibitory concentrations (MIC)
Text: as §1

[6] = system: Klebsiella pneumoniae PCI-602; conditions: PCI602, read-out: Minimum inhibitory concentrations (MIC)
Text: as §1

Proteus rettgeri GN-624 = conditions: Providencia rettgeri, GN624, read-out: Minimum inhibitory concentrations (MIC)
Text: as §1

[7] = system: Staphylococcus aureus Smith; conditions: read-out: Minimum inhibitory concentrations (MIC)
Text: as §1

Row | Compound | MIC [1] | MIC [2] | MIC [3] | MIC (Proteus mirabilis GN-79) | MIC [4] | MIC (Proteus vulgaris GN-76) | MIC [5] | MIC [6] | MIC (Proteus rettgeri GN-624) | MIC [7]
1 | CO/N=C(\C(=O)NC1C(=O)N2C(C(=O)O)=C(/C=C\C(F)(F)F)CSC12)c1csc(N)n1 (stereo not drawn) [Compound (A), 7-[2-methoxyimino-2-(2-aminothiazol-4-yl)acetamido]-3-(3,3,3-trifluoropropenyl)-3-cephem-4-carboxylic acid (syn-isomer, cis-isomer)] | 0.2 mg/L (≈ 0.419 µM) | 0.2 mg/L (≈ 0.419 µM) | 0.78 mg/L (≈ 1.63 µM) | 0.39 mg/L (≈ 0.817 µM) | 0.39 mg/L (≈ 0.817 µM) | 0.2 mg/L (≈ 0.419 µM) | 6.25 mg/L (≈ 13.1 µM) | 0.39 mg/L (≈ 0.817 µM) | 3.13 mg/L (≈ 6.56 µM) | 0.39 mg/L (≈ 0.817 µM)
2 | CO/N=C(\C(=O)NC1C(=O)N2C(C(=O)O)=C(/C=C/C(F)(F)F)CSC12)c1csc(N)n1 (stereo not drawn) [Compound (B), 7-[2-methoxyimino-2-(2-aminothiazol-4-yl)acetamido]-3-(3,3,3-trifluoropropenyl)-3-cephem-4-carboxylic acid (syn-isomer, trans-isomer)] | 0.39 mg/L (≈ 0.817 µM) | 0.39 mg/L (≈ 0.817 µM) | 0.39 mg/L (≈ 0.817 µM) | 0.39 mg/L (≈ 0.817 µM) | 0.2 mg/L (≈ 0.419 µM) | 0.2 mg/L (≈ 0.419 µM) | 6.25 mg/L (≈ 13.1 µM) | 0.39 mg/L (≈ 0.817 µM) | 1.56 mg/L (≈ 3.27 µM) | 0.78 mg/L (≈ 1.63 µM)
